IC50 data for nine compounds are collected here from patent publication US8445510B2, “Fused bicyclic kinase inhibitors” (OSI Pharmaceuticals, LLC, priority 2011, dated 2013).

Each structure is given as a SMILES string. Bounds are passed on as bounds.

This experiment has as its system Karpas-299 cells. Description: Karpas-299 cell proliferation assay (CellTiter-Glo). In kind it is cell-based. The settings on record: Homo sapiens, 72 h; Karpas-299 cell line (NPM-ALK); 3 days incubation; at least duplicate experiments; read-out: Prolif. IC50. In general terms: In ATP-based viability assays light output follows the ATP content of the culture.
Take `C[C@H](c1c(OC(F)F)ccc(F)c1Cl)c1c[nH]c2ncc(-c3cnc([C@H]4CC[C@H](O)CC4)n3C)cc12` [Example 126, trans-4-[5-(3-{(1S)-1-[2-Chloro-6-(difluoromethoxy)-3-fluorophenyl]ethyl}-1H-pyrrolo[2,3-b]pyridin-5-yl)-1-methyl-1H-imidazol-2-yl]cyclohexanol]: the half-inhibitory concentration (IC50) was at most 50 nM. Next, `Cc1c(-c2cnc3[nH]cc([C@H](CF)c4c(OC(F)F)ccc(F)c4Cl)c3c2)cnn1[C@H]1CC[C@H](O)CC1` [Example 124, trans-4-[4-(3-{(1S)-1-[2-chloro-6-(difluoromethoxy)-3-fluorophenyl]-2-fluoroethyl}-1H-pyrrolo[2,3-b]pyridin-5-yl)-5-methyl-1H-pyrazol-1-yl]cyclohexanol]: at most 50 nM. Regarding `COc1ccc(F)c(Cl)c1[C@@H](CF)c1c[nH]c2ncc(-c3cnn([C@H]4CC[C@H](O)CC4)c3C)cc12` [Example 121, trans-4-(4-{3-[(1S)-1-(2-Chloro-3-fluoro-6-methoxyphenyl)-2-fluoroethyl]-1H-pyrrolo[2,3-b]pyridin-5-yl}-5-methyl-1H-pyrazol-1-yl)cyclohexanol], the IC50 was at most 50 nM.

As for `C[C@H](c1c(OC(F)F)ccc(F)c1Cl)c1c[nH]c2ncc(-c3cnc(N4CCC(O)CC4)n3C)cc12` [Example 125, 1-[5-(3-{(1S)-1-[2-Chloro-6-(difluoromethoxy)-3-fluorophenyl]ethyl}-1H-pyrrolo[2,3-b]pyridin-5-yl)-1-methyl-1H-imidazol-2-yl]piperidin-4-ol], the IC50 is at most 50 nM. Regarding `Cc1c(-c2cnc3[nH]cc([C@@H](CF)c4c(OC(F)F)ccc(F)c4Cl)c3c2)cnn1[C@H]1CC[C@H](O)CC1` [Example 123, trans-4-[4-(3-{(1R)-1-[2-chloro-6-(difluoromethoxy)-3-fluorophenyl]-2-fluoroethyl}-1H-pyrrolo[2,3-b]pyridin-5-yl)-5-methyl-1H-pyrazol-1-yl]cyclohexanol], the IC50 lay within 50 to 200 nM. Next, `CC(=O)N1CCC(n2ncc(-c3cnc4[nH]cc([C@H](C)c5c(OC(F)F)ccc(F)c5Cl)c4c3)c2C)CC1` [Example 97, 1-{4-[4-(3-{(1S)-1-[2-Chloro-6-(difluoromethoxy)-3-fluorophenyl]ethyl}-1H-pyrrolo[2,3-b]pyridin-5-yl)-5-methyl-1H-pyrazol-1-yl]piperidin-1-yl}ethanone]: at most 50 nM; `COc1ccc(F)c(Cl)c1[C@@H](C)c1c[nH]c2ncc(-c3cn([C@H]4CC[C@H](O)CC4)nc3OC)cc12` [Example 99, trans-4-(4-{3-[(1S)-1-(2-chloro-3-fluoro-6-methoxyphenyl)ethyl]-1H-pyrrolo[2,3-b]pyridin-5-yl}-3-methoxy-1H-pyrazol-1-yl)cyclohexanol]: 50 to 200 nM; `Cc1c(-c2cnc3[nH]cc([C@H](C)c4c(OC(F)F)ccc(F)c4Cl)c3c2)cnn1C1CCNCC1` [Example 96, 3-{(1S)-1-[2-Chloro-6-(difluoromethoxy)-3-fluorophenyl]ethyl}-5-[5-methyl-1-(piperidin-4-yl)-1H-pyrazol-4-yl]-1H-pyrrolo[2,3-b]pyridine]: at most 50 nM. For `COc1nn([C@H]2CC[C@H](O)CC2)cc1-c1cnc2[nH]cc([C@H](C)c3c(OC(F)F)ccc(F)c3Cl)c2c1` [Example 100, trans-4-[4-(3-{(1S)-1-[2-chloro-6-(difluoromethoxy)-3-fluorophenyl]ethyl}-1H-pyrrolo[2,3-b]pyridin-5-yl)-3-methoxy-1H-pyrazol-1-yl]cyclohexanol] the value was 50 to 200 nM.

Usually IC50 stands for the concentration that inhibits the measured activity by half.
